Experimental data taken from patent publication US9321772B2, “Substituted pyrazolo[3,4-D]pyrimidines and uses thereof” (The Regents of the University of California, priority 2011, dated 2016).
“Also recorded” adds a separate entry of the source.

What was measured:
[1] = test system: TT cell tumors in athymic nu/nu mice; assay: MEN2 (TT) mouse xenograft model; type: in vivo; details: nude mice transplanted with TT cells; oral gavage; median per group
Procedure: FIG. 11. […] TT thyroid cancer cells were implanted into athymic nu/nu mice subcutaneously into the right flank under the conditions listed. Upon establishment of tumors, drugs were administered by oral gavage (5 days ON/2 days OFF schedule). Tumors were measured using digital calipers. […] VD=vandetanib.
FIG. 18A-18D. […] FIG. 18A. MEN2B (MZ) thyroid cancer cells were treated with the indicated concentrations of each inhibitor (7 days) and cell viability was quantitated by MTT assay. FIG. 18B. MEN2A (TT) thyroid cancer cells were treated with the indicated concentrations of each inhibitor (7 days) and cell viability was quantitated by MTT assay. FIG. 18C. […] Change in tumor volume was calculated per mouse. Values shown are the median percent change per group. 20 and 10 animals for vehicle and drug treated mice, respectively, were analyzed. FIG. 18D. Body weight measurements of AD80, Vandetanib (VD) and vehicle treated nude mice transplanted with TT cells. Values shown are the median of 20 and 10 animals for vehicle and drug treated mice, respectively.
TT-based tumors were grown for 46 days in athymic nu/nu male mice prior to drug administration.

[2] = test system: ptc>dRet^MEN2B flies; assay: Drosophila ptc>dRetMEN2B viability assay; type: in vivo; details: for rescue of ptc>dRetMEN2B viability (pupae, adults), in words: oral administration, drug mixed into food
Excerpt: FIG. 1A. Suppression of Ret^MEN2B-induced developmental block and whole animal toxicity were scored based on number of embryos (n) that survived as pupae (x) and adults (y). Drugs were mixed into food and fed to flies starting at larval stages.
FIG. 1B. Percent viability of control or drug treated flies determined for pupae (x/n) and adults (y/n).
Described herein is a Drosophila MEN2B model in which an intracellular mutation in the Drosophila Ret ortholog (dRet) was targeted to the eye (Read, R. D. et al., Genetics, 2005. 171(3): p. 1057-81). […] The screen is conducted in developing drosophila embryos. Under normal circumstances, drosophila embryos pass through four developmental steps: embryo→larvae→pupae→adult. […] We calibrated the ptc>dRetMEN2B assay to permit 50% survival to pupariation and 0% survival to adulthood. Mutated forms of RET are believed to be causative in human thyroid cancers including multiple endocrine neoplasia types 2A and 2B (MEN2A and MEN2B). The screen identifies small molecules that (a) suppress the toxicity induced by oncogenic RET and (b) allow flies to develop to functional adults. […] 64(19): p. 7099-109; Sun, L. et al., J Med Chem, 2003. 46(7): p.

[3] = test system: wild type flies; assay: Viability of drug treated wild-type flies; type: in vivo, Drosophila
Excerpt: FIG. 4B. Decreased viability of wild type flies by AD58 was mitigated by co-administration of Sorafenib or AZD6244.
FIG. 15. Percent viability of control and drug treated wild-type flies (WT). The proportion of WT pupae and adults that survived from the total number of embryos (indicated in brackets below) are represented as column graphs. (Pupae left, Adults right)

[4] = test system: ptc>dRet^MEN2B wing cells; assay: Wing-based assay for transformation and cell migration (ptc>dRetMEN2B); type: in vivo, Drosophila
Excerpt: FIG. 4E. Quantification of ptc>dRet^MEN2B phenotypes. Invasion was established by scoring for single/groups of GFP-labeled cells that relocated away from the ptc boundary (FIG. 4C, asterisks). Basal migration was scored as indentation of the apical surface (see FIG. 2B, arrows). Proliferation was scored as significant widening of the ptc boundary. The number of wings analyzed under each condition is indicated in brackets.
We previously developed a wing-based assay for transformation and cell migration that we utilized to explore Ras- and Src-based tumorigenesis (Vidal, M., D. E. Larson, and R. L. Cagan, Dev Cell, 2006. 10(1): p. 33-44). In this assay, the ptc-GAL4 driver directed oncogene expression in a stripe along the anterior-posterior axis; oncogene-based transformation led to over-proliferation, epithelial-to-mesenchymal transition (EMT), and cell migration away from the ptc domain.

[5] = molecular target: T1, Ret kinase domain (Homo sapiens, UniProt P07949); assay: In vitro kinase assay, Ret; type: biochemical; details: in vitro kinase profile, 1 μM
T1 construct: determined against a purified form of the Ret kinase domain
T1 sequence (P07949 724-1016 limits assumed): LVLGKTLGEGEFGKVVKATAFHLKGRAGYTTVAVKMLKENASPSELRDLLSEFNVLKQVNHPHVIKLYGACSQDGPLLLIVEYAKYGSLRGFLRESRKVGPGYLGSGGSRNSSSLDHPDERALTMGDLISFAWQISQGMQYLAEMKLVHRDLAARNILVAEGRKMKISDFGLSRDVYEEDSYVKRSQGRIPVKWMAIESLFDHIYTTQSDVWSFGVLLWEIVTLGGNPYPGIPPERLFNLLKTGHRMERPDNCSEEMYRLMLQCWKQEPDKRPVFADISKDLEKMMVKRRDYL
Procedure: FIG. 1D. […] Half maximal inhibitory concentrations (IC50) were determined against a purified form of the Ret kinase domain.
(§1) Using in vitro kinase assays we tested AD57, AD36, and AD58 at 1 μM for activity against approximately one-half of the human kinome (FIG. 1E): 165 Ser/Thr kinases, 91 Tyr kinases, and 10 PI kinases were assayed, totaling 266 kinases (244 distinct kinases plus 22 mutant isoforms; see FIG. 6A-6C, FIG. 7A-7F, and FIG. 8 for measured inhibition values).
(§2) At least three major pathways are required for dRet^MEN2B-mediated transformation: Ras, Src, and glucose metabolism/PI3K (FIG. 3A; Ref (Read, R. D. et al., Genetics, 2005. 171(3): p. 1057-81)). We utilized in vitro kinase assays to assess compound activity against relevant kinases from each of these pathways, specifically Ret, B-Raf, Src, Tor, and S6K (FIG. 3B).

[6] = molecular target: B-Raf (Homo sapiens, UniProt P15056); assay: In vitro kinase assay, B-Raf; type: biochemical; details: in vitro kinase profile, 1 μM
Chain of B-Raf (P15056 whole entry): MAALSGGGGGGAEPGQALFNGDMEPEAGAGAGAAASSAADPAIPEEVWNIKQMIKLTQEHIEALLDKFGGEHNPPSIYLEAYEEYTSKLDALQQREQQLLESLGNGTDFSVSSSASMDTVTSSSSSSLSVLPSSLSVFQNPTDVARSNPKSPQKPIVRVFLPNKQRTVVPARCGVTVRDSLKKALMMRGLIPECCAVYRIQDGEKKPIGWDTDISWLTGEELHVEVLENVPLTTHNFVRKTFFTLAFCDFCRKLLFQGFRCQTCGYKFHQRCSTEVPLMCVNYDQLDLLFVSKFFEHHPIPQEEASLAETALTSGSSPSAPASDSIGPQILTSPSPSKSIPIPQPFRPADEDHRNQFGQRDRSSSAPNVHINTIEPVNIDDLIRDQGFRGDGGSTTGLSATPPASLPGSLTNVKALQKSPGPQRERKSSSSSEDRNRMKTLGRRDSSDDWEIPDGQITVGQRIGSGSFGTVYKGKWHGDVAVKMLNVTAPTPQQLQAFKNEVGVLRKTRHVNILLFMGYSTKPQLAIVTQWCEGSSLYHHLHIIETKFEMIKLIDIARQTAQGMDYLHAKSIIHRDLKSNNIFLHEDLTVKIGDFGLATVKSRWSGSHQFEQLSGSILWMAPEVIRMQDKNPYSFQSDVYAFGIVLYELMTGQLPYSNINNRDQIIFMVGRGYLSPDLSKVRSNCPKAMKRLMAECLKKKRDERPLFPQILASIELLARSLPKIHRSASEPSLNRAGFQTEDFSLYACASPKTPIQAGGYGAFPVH
Procedure: as §1, §2

[7] = molecular target: Src (Homo sapiens, UniProt P12931); assay: In vitro kinase assay, Src; type: biochemical; details: in vitro kinase profile, 1 μM
Chain of Src (P12931 whole entry): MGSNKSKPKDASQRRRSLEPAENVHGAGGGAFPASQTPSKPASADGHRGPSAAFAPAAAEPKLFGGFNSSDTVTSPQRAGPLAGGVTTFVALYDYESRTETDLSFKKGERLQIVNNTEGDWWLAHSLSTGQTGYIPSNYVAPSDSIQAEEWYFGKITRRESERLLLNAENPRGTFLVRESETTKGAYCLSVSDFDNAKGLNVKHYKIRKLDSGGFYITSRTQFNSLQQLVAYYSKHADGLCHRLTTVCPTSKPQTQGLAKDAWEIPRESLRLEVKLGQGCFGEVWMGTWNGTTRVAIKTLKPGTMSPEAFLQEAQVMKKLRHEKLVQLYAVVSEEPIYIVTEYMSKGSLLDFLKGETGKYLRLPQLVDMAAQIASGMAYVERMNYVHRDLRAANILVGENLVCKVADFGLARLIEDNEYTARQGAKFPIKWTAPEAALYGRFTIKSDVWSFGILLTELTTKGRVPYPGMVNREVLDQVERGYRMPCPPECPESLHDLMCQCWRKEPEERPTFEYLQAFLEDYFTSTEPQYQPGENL
Procedure: as §1, §2

[8] = molecular target: S6K (Homo sapiens, UniProt P23443); assay: In vitro kinase assay, S6K; type: biochemical; details: in vitro kinase profile, 1 μM
Chain of S6K (P23443 whole entry): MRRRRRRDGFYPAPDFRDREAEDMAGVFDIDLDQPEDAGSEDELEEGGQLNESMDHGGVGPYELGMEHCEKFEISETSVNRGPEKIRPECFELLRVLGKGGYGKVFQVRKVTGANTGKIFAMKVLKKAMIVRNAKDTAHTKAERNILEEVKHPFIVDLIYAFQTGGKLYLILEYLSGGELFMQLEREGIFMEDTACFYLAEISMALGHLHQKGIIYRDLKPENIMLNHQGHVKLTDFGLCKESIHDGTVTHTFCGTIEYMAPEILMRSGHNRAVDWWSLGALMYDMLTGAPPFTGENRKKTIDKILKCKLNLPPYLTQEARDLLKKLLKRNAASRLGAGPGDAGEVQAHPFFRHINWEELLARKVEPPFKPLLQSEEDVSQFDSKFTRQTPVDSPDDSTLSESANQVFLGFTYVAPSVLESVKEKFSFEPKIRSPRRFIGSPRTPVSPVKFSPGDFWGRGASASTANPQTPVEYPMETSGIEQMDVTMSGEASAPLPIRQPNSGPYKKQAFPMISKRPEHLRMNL
Procedure: as §1, §2

[9] = molecular target: mTor (Homo sapiens, UniProt P42345); assay: In vitro kinase assay, mTor; type: biochemical; details: in vitro kinase profile, 1 μM
Procedure: as §1, §2

[10] = test system: MZ-CRC-1 (MEN2B) cancer cell line; assay: MZ-CRC-1 cell viability (MTT assay); type: cell-based, human
[11] = test system: 765>dRet^MEN2B wings (Ras/Erk pathway activity); assay: Adult wing vein pattern assay (765>dRetMEN2B); type: in vivo, Drosophila; details: drug fed flies
Excerpt: The adult Drosophila wing consists of a stereotypical pattern of […] and two cross-veins; increased Ras/Erk pathway activity leads to ectopic veins (e.g., Refs. (Sawamoto, K. et al., Dev Biol, 1996. 178(1): p. 13-22; Guichard, A. et al., Development, 1999. 126(12): p. 2663-76)). Expression of oncogenic dRet throughout the developing wing (765>dRet^MEN2B) led to disruption of the overall adult wing pattern including ectopic wing veins (FIG. 3D). Reducing gene dosage of the erk ortholog rolled (765>dRet^MEN2B erk−/+) suppressed these phenotypes (FIG. 3D), confirming that wing vein formation is dependent on Ras/Erk activity.

[12] = test system: MEN2B (MZ) thyroid cancer cells; assay: Immunoblot analysis of drug-treated MZ cells; type: cell-based, human; details: 1 hour of treatment
Procedure: (§3) FIG. 19. […] MEN2A (TT) and MEN2B (MZ) thyroid cancer cells were treated with the indicated drugs for 3 days at a final concentration of 2 μM. Cell lystates were immunoblotted for protein markers of apoptosis. Vandetanib (vand.) was included for comparison.
(§4) FIG. 20A-20B. […] FIG. 20A. MEN2B (MZ) and FIG. 20B. MEN2A (TT) thyroid cancer cells were treated with the indicated concentrations of drug. Following 1 hour of treatment, cells were harvested and lysates prepared for immunoblotting to detect the indicated proteins. VD=vandetanib; SF=sorafenib.

[13] = test system: MEN2A (TT) thyroid cancer cells; assay: Immunoblot analysis of drug-treated TT cells; type: cell-based, human; details: 1 hour of treatment
Procedure: as §3, §4

COc1cc2c(Nc3ccc(Br)cc3F)ncnc2cc1OCC1CCN(C)CC1 [Vandetanib, reference compound]
reduction of tumor progression relative to vehicle [1]: 1.9 fold

CNC(=O)c1cc(Oc2ccc(NC(=O)Nc3ccc(Cl)c(C(F)(F)F)c3)cc2)ccn1 [Sorafenib, reference compound]
notum, scutellum and cuticle defects of ptc>dRetMEN2B adults ([2]; drug fed flies): weakly suppressed; also recorded: some cuticle defects
rescue of ptc>dRetMEN2B viability (pupae, adults), in words [2]: stronger; also recorded: rescued some animals to adulthood but did not significantly increase the proportion that developed to pupariation
AD58-mediated toxicity in wild type flies on co-feeding with the named drug ([3]; co-feeding with AD58): almost completely suppressed
suppression of dRetMEN2B-induced proliferation, EMT, invasion/basal migration ([4]; oral administration): measurable rescue that was nonetheless less than AD57; also recorded: did not suppress migration

CC(C)n1nc(-c2ccc(NC(=O)Nc3ccc(Cl)c(C(F)(F)F)c3)cc2)c2c(N)ncnc21 [AD81]
rescue of ptc>dRetMEN2B viability (pupae, adults), in words [2]: improved rescue relative to AD57
suppression of dRetMEN2B-induced proliferation, EMT, invasion/basal migration ([4]; oral administration): significantly improved suppression
Ret inhibition, in words [5]: inhibited
B-Raf (Raf) inhibition, in words [6]: inhibited
Src inhibition, in words [7]: inhibited
S6K inhibition, in words [8]: inhibited
mTor inhibition, in words [9]: not and greatly reduced mTor activity and lack significant inhibitory activity

Cn1cnc2c(F)c(Nc3ccc(Br)cc3Cl)c(C(=O)NOCCO)cc21 [AZD6244, reference compound]
rescue of ptc>dRetMEN2B viability (pupae, adults), in words [2]: did not rescue viability
AD58-mediated toxicity in wild type flies on co-feeding with the named drug ([3]; in vivo): almost completely suppressed

Nc1ncnc2c1c(-c1cnc3[nH]ccc3c1)nn2C1CCCC1 [PP121, reference compound]
suppression of dRetMEN2B-induced proliferation, EMT, invasion/basal migration ([4]; oral administration): limited ability to significantly rescue the transformation phenotype and not
inhibition of MZ-CRC-1 cell viability / proliferation, in words [10]: levels approaching AD57

CC(C)n1nc(-c2ccc(NC(=O)Nc3ccccc3)cc2)c2c(N)ncnc21 [AD58]
rescue of ptc>dRetMEN2B viability (pupae, adults), in words [2]: significant toxicity without detectable efficacy
effect of reducing dTor on drug efficacy/toxicity ([2]; ptc>dRetMEN2B dTor-/+): enhanced the toxicity
effect of reducing erk gene dosage on drug efficacy in viability assay ([2]; ptc>dRetMEN2B, erk-/+): considerably enhanced the efficacy
whole animal toxicity ([3]; fed to ptc>dRetMEN2B and wild type flies): significant whole animal toxicity
invasion and migration of dRetMEN2B-transformed cells ([4]; co-treatment AD58 plus Sorafenib): significant suppression of invasion and migration; also recorded: blocked
basal phospho-Src in wing epithelium ([4]; oral administration): prevented basal phospho-Src accumulation
suppression of dRetMEN2B-induced proliferation, EMT, invasion/basal migration ([4]; oral administration): failed to prevent invasion/basal migration and not and did not suppress migration
ectopic wing vein / wing pattern phenotype [11]: slightly but consistently enhanced
B-Raf (Raf) inhibition, in words [6]: much weaker inhibitor
Src inhibition, in words [7]: strongly inhibited
S6K inhibition, in words [8]: much weaker inhibitor
mTor inhibition, in words [9]: more potent; also recorded: stronger inhibitor
phospho-Ret and downstream biomarkers [12]: potent inhibitors
phospho-Ret and downstream biomarkers [13]: potent inhibitors
